Laboratory results taken from ChEMBL document CHEMBL5252618, “Discovery and Biosynthesis of Imidazolium Antibiotics from the Probiotic Bacillus licheniformis” (J Nat Prod, 2023).
Values joined by “and” are separate entries in the source; they are usually repeats but may differ in a detail not shown here. Equal entries are not always repeated. Active and inactive are the calls of the source. No cut-off for these calls is given here.

Experiments:
[1] = Cytotoxicity against human Chang liver cells at 31.25 to 500 uM incubated for 24 hrs by CellTiter96 aqueous one solution based assay; type: toxicity, cell-based; conditions: dose 31.25-500 µM
HepG2 = test: Cytotoxicity against human HepG2 cells at 31.25 to 500 uM incubated for 24 hrs by CellTiter96 aqueous one solution based assay; type: functional, cell-based; conditions: dose 31.25-500 µM
HCT-116 = test: Cytotoxicity against human HCT-116 cells at 31.25 to 500 uM incubated for 24 hrs by CellTiter96 aqueous one solution based assay; type: functional, cell-based; conditions: dose 31.25-500 µM
HT-1080 = test: Cytotoxicity against human HT-1080 cells at 31.25 to 500 uM incubated for 24 hrs by CellTiter96 aqueous one solution based assay; type: functional, cell-based; conditions: dose 31.25-500 µM
NIH3T3 = test: Cytotoxicity against mouse NIH3T3 cells at 31.25 to 500 uM incubated for 24 hrs by CellTiter96 aqueous one solution based assay; type: toxicity, cell-based; conditions: nih3t3, 24 h, dose 31.25-500 µM
WI-38 = test: Cytotoxicity against human WI-38 cells at 31.25 to 500 uM incubated for 24 hrs by CellTiter96 aqueous one solution based assay; type: toxicity, cell-based; conditions: wi-38, 24 h, dose 31.25-500 µM
A549 = test: Cytotoxicity against human A549 cells at 31.25 to 500 uM incubated for 24 hrs by CellTiter96 aqueous one solution based assay; type: functional, cell-based; conditions: dose 31.25-500 µM
[2] = system: Brevibacterium epidermidis; test: Antibacterial activity against Brevibacterium epidermidis ATCC35514 assessed as bacterial growth inhibition incubated for overnight by visual analysis; type: functional
Acinetobacter baumannii [3] = test: Antibacterial activity against Acinetobacter baumannii assessed as bacterial growth inhibition incubated for overnight by visual analysis; type: functional
Staphylococcus aureus [4] = test: Antibacterial activity against methicillin-resistant Staphylococcus aureus USA300 assessed as bacterial growth inhibition incubated for overnight by visual analysis; type: functional
[5] = system: Lacticaseibacillus paracasei; test: Antibacterial activity against Lacticaseibacillus paracasei subsp.paracasei ATCC25302 assessed as bacterial growth inhibition incubated for overnight by visual analysis; type: functional; conditions: subsp. paracasei ATCC 25302
RAW264.7 = test: Antiinflammatory activity in mouse RAW 264.7 cells assessed as inhibition of LPS-induced NO production at 10 uM pretreated for 1 hr followed by LPS stimulation and further incubated for 24 hrs by griess reagent based assay; type: functional, cell-based; conditions: time 25.0 hrs
Acinetobacter baumannii [6] = test: Antibacterial activity against Acinetobacter baumannii harboring LPS-deficient mutant lpxC assessed as bacterial growth inhibition incubated for overnight by visual analysis; type: functional
Escherichia coli [7] = test: Antibacterial activity against Escherichia coli MG1655 assessed as bacterial growth inhibition incubated for overnight by visual analysis; type: functional
Escherichia coli [8] = test: Synergistic antibacterial activity against wild type Escherichia coli MG1655 assessed as potentiation of colistin-induced antibacterial effect by measuring […] in colistin MIC at 0.32 to 84 ug/ml incubated for 24 hrs by checker board assay relative to control; type: functional; conditions: dose 0.32-84 µg/ml
Acinetobacter baumannii [9] = test: Synergistic antibacterial activity against Acinetobacter baumannii assessed as potentiation of colistin-induced antibacterial effect by measuring […] in colistin MIC at 0.32 to 84 ug/ml incubated for 24 hrs by checker board assay relative to control; type: functional; conditions: dose 0.32-84 µg/ml
Escherichia coli [10] = test: Synergistic antibacterial activity against wild type Escherichia coli MG1655 assessed as potentiation of colistin-induced antibacterial effect by measuring colistin MIC at 0.32 to 84 ug/ml incubated for 24 hrs by checker board assay (reference value: 2.5 ug/ml); type: functional; conditions: dose 0.32-84 µg/ml
Acinetobacter baumannii [11] = test: Synergistic antibacterial activity against Acinetobacter baumannii assessed as potentiation of colistin-induced antibacterial effect by measuring colistin MIC at 0.32 to 84 ug/ml incubated for 24 hrs by checker board assay (reference value: 0.2 ug/ml); type: functional; conditions: dose 0.32-84 µg/ml
Bacillus subtilis = test: Antibacterial activity against Bacillus subtilis NRS-231 assessed as bacterial growth inhibition incubated for 18 hrs; type: functional
Staphylococcus aureus [12] = test: Antibacterial activity against methicillin-resistant Staphylococcus aureus ATCC 33591 assessed as bacterial growth inhibition incubated for 18 hrs; type: functional
Escherichia coli [13] = test: Antibacterial activity against Escherichia coli ATCC 25922 assessed as bacterial growth inhibition incubated for 18 hrs; type: functional

SMILES | Activity [1] | Activity (HepG2) | Activity (HCT-116) | Activity (HT-1080) | Activity (NIH3T3) | Activity (WI-38) | Activity (A549) | MIC [2] | MIC (Acinetobacter baumannii [3]) [µM] | MIC (Staphylococcus aureus [4]) | MIC [5] | inhibition (RAW264.7) | MIC (Acinetobacter baumannii [6]) | MIC (Escherichia coli [7]) [µM] | other results
CC(=O)NCCc1ccccc1 | Non-Toxic | inactive | inactive | inactive | Non-Toxic | Non-Toxic | inactive |  |  |  |  |  |  |  | 
Cc1c(C)[n+](CCc2c[nH]c3ccccc23)c(CC(C)C)n1CCc1c[nH]c2ccccc12 | Non-Toxic | inactive | inactive | inactive | Non-Toxic | Non-Toxic | inactive | > 100 µM | > 100 | > 100 µM | 22 µg/mL and 50 µM | inactive | 22 µg/mL and 50 µM | > 100 | 
CCCc1n(CCc2c[nH]c3ccccc23)c(C)c(C)[n+]1CCc1c[nH]c2ccccc12 | Non-Toxic | inactive | inactive | inactive | Non-Toxic | Non-Toxic | inactive | 1.3 µg/mL and 3.13 µM | > 100 | 1.3 µg/mL and 3.13 µM | 0.7 µg/mL and 1.56 µM |  | 2.6 µg/mL and 6.25 µM | > 100 | fold change (FC) (Escherichia coli [8]): 8; fold change (FC) (Acinetobacter baumannii [9]): 4; MIC (Escherichia coli [10]): 0.313 µg/mL; MIC (Acinetobacter baumannii [11]): 0.05 µg/mL
O=c1[nH]cc(F)c(=O)[nH]1 [FLUOROURACIL] | Toxic |  |  |  | Toxic | Toxic |  |  |  |  |  |  |  |  | 
NCCc1c[nH]c2ccccc12 [TRYPTAMINE] | Non-Toxic | inactive | inactive | inactive | Non-Toxic | Non-Toxic | inactive |  |  |  |  |  |  |  | 
Cc1c(C)[n+](CCc2c[nH]c3ccccc23)cn1CCc1ccccc1 | Non-Toxic | inactive | inactive | inactive | Non-Toxic | Non-Toxic | inactive |  |  |  | > 34 µg/mL and > 100 µM |  |  |  | 
Cc1c(C)[n+](CCc2c[nH]c3ccccc23)cn1CCc1c[nH]c2ccccc12 | Non-Toxic | inactive | inactive | inactive | Non-Toxic | Non-Toxic | inactive | > 100 µM | > 100 | > 100 µM | 19 µg/mL and 50 µM |  | 38 µg/mL and 100 µM | > 100 | 
CCCc1n(CCC(C)C)c(C)c(C)[n+]1CCc1c[nH]c2ccccc12 | Non-Toxic | inactive | inactive | inactive | Non-Toxic | Non-Toxic | inactive | > 100 µM | > 100 | > 100 µM | 9 µg/mL and 25 µM | Active | 9 µg/mL and 25 µM | > 100 | 
CCCC(=O)C(C)NCCc1c[nH]c2ccccc12 (stereo not drawn) | Non-Toxic | inactive | inactive | inactive | Non-Toxic | Non-Toxic | inactive |  |  |  |  |  |  |  | 
Cc1c(C)[n+](CCc2c[nH]c3ccccc23)c(C)n1CCc1ccccc1 | Non-Toxic | inactive | inactive | inactive | Non-Toxic | Non-Toxic | inactive |  |  |  | > 36 µg/mL and > 100 µM | inactive |  |  | 
CCCc1c(C)[n+](CCc2c[nH]c3ccccc23)c(CCC)n1CCc1c[nH]c2ccccc12 | Non-Toxic | Active | Active | Active | Non-Toxic | Non-Toxic | Active | 11 µg/mL and 25 µM | > 100 | 11 µg/mL and 25 µM | 6 µg/mL and 12.5 µM | Active | 11 µg/mL and 25 µM | > 100 | 
CC(=O)C(C)NCCc1c[nH]c2ccccc12 (stereo not drawn) | Non-Toxic | inactive | inactive | inactive | Non-Toxic | Non-Toxic | inactive | 12 µg/mL and 50 µM |  | 12 µg/mL and 50 µM | 6 µg/mL and 25 µM |  |  | > 100 | 
Cc1c(C)[n+](CCc2c[nH]c3ccccc23)c(C)n1CCc1c[nH]c2ccccc12 | Non-Toxic | inactive | inactive | inactive | Non-Toxic | Non-Toxic | inactive | > 100 µM | > 100 | 20 µg/mL and 50 µM | 20 µg/mL and 50 µM |  | 40 µg/mL and 100 µM | > 100 | MIC (Bacillus subtilis): > 50 µM; MIC (Staphylococcus aureus [12]): > 50 µM; MIC (Escherichia coli [13]): > 50 µM
CC(=O)c1cc(C)c(C)n1CCc1c[nH]c2ccccc12 | Non-Toxic | inactive | inactive | inactive | Non-Toxic | Non-Toxic | inactive |  |  |  |  | Active |  |  | 
